Data published in ChEMBL document CHEMBL4673259, “Discovery of isoquinolinone and naphthyridinone-based inhibitors of poly(ADP-ribose) polymerase-1 (PARP1) as anticancer agents: Structure activity relationship and preclinical characterization” (Bioorg Med Chem, 2020).
pIC50: −log10 of the molar value. Activity calls are given as the source filed them. No cut-off for these calls is given here.

How the values were obtained:
[1] = biological target: T1, Poly [ADP-ribose] polymerase 1 (Homo sapiens, UniProt P09874); experiment: Inhibition of N-terminal GST-tagged human full length PARP1 (2 to 1041 residues) expressed in baculovirus infected Sf9 cells using histone mixture (H2A and H2B) and biotinylated NAD+ as substrate in presence of activated DNA incubated for 60 mins by chemiluminescence assay
[2] = biological target: T1, Poly [ADP-ribose] polymerase 1; experiment: Inhibition of PARP1 in human MDA-MB-436 cells assessed as inhibition of PARylation at 10 nM incubated for 1 hr by chemiluminescence assay; format: cell-based
[3] = tested on: MDA-MB-436; experiment: Cytotoxicity against human MDA-MB-436 cells assessed as inhibition of cell viability incubated for 14 days with three intermittent intervals by CellTiterGlo luminescence assay; conditions: MDA-MB-436, 336 h
[4] = Tmax in BALB/c mouse at 1 mg/kg, iv measured up to 24 hrs by LC-MS/MS analysis; format: ADME, organism-based; conditions: in vivo
[5] = Tmax in BALB/c mouse at 10 mg/kg, po measured up to 24 hrs by LC-MS/MS analysis; format: ADME, organism-based; conditions: in vivo
[6] = Cmax in BALB/c mouse at 1 mg/kg, iv measured up to 24 hrs by LC-MS/MS analysis; format: ADME, organism-based; parameters: route intravenous, dose 1 mg/kg, time <=24; conditions: in vivo
[7] = Cmax in BALB/c mouse at 10 mg/kg, po measured up to 24 hrs by LC-MS/MS analysis; format: ADME, organism-based; parameters: route oral, dose 10 mg/kg, time <=24; conditions: in vivo
[8] = AUClast in BALB/c mouse at 1 mg/kg, iv measured up to 24 hrs by LC-MS/MS analysis; format: ADME, organism-based; parameters: route intravenous, dose 1 mg/kg, time <=24; conditions: in vivo
[9] = Half life in BALB/c mouse at 1 mg/kg, iv measured up to 24 hrs by LC-MS/MS analysis; format: ADME, organism-based; conditions: in vivo
[10] = Clearance in BALB/c mouse at 1 mg/kg, iv measured up to 24 hrs by LC-MS/MS analysis; format: ADME, organism-based; conditions: in vivo
[11] = Volume of distribution at steady state in BALB/c mouse at 1 mg/kg, iv measured up to 24 hrs by LC-MS/MS analysis; format: ADME, organism-based; conditions: in vivo, read-out: Vdss
[12] = Oral bioavailability in BALB/c mouse at 10 mg/kg measured up to 24 hrs by LC-MS/MS analysis; format: ADME, organism-based; conditions: in vivo
[13] = biological target: CYP2C9 (Homo sapiens, UniProt P11712); experiment: Inhibition of CYP2C9 (unknown origin) at 10 uM relative to control; format: ADME
[14] = biological target: CYP2D6 (Homo sapiens, UniProt P10635); experiment: Inhibition of CYP2D6 (unknown origin) at 10 uM relative to control; format: ADME
[15] = biological target: CYP3A4 (Homo sapiens, UniProt P08684); experiment: Inhibition of CYP3A4 (unknown origin) at 10 uM relative to control; format: ADME
[16] = Metabolic stability of the compound in rat plasma measured up to 4 hrs; format: ADME, cell-free; conditions: read-out: Stabilty
[17] = Metabolic stability of the compound in dog plasma measured up to 4 hrs; format: ADME, cell-free, Canis lupus familiaris; conditions: read-out: Stabilty
[18] = Protein binding in human plasma; format: ADME, cell-free; conditions: read-out: PPB (converted)
[19] = tested on: MCF7; experiment: Cytotoxicity against human MCF7 cells harboring wild type BRCA at 1000 nM relative to control; format: cell-based; conditions: mcf7, 1 µM
[20] = tested on: MDA-MB-436; experiment: Anticancer activity against human MDA-MB-436 cells harboring BRCA mutant xenografted in po dosed SCID/nude mouse assessed as tumor growth regression administered bid and measured up to 5 weeks post-drug administration; format: functional, organism-based; conditions: dose 0.015-0.15 mg/kg, time weeks <=5
[21] = tested on: MDA-MB-436; experiment: Anticancer activity against human MDA-MB-436 cells harboring BRCA mutant xenografted in SCID/nude mouse assessed as tumor growth regression at 0.015 mg/kg, po bid and measured up to 5 weeks post-drug administration; format: functional; conditions: MDA-MB-436, po, 840 h, time weeks <=5
[22] = tested on: MDA-MB-436; experiment: Potentiation of anticancer activity against human MDA-MB-436 cells harboring BRCA mutant xenografted in SCID/nude mouse assessed as tumor growth inhibition at 0.15 mg/kg, po bid for 12 days co-administered with TMZ measured after drug administration cessation; format: functional, organism-based; conditions: time 12.0 day
[23] = tested on: CAPAN-1; experiment: Potentiation of anticancer activity against human CAPAN-1 cells harboring BRCA mutant xenografted in SCID/nude mouse assessed as tumor growth inhibition at 0.15 mg/kg, po bid for 12 days co-administered with TMZ measured up to 9 weeks post-drug administration; format: functional; conditions: CAPAN-1, po, 288 h, time 12 day
[24] = tested on: CAPAN-1; experiment: Antitumor activity against human CAPAN1 cells xenografted in SCID/nude mouse assessed as tumor growth inhibition at 0.3 mg/kg, po bid measured up to 5 weeks post drug administration; format: functional; conditions: CAPAN-1, po, 840 h, time weeks <=5
[25] = tested on: SK-ES1; experiment: Antitumor activity against human SK-ES-1 cells xenografted in SCID/nude mouse assessed as tumor growth inhibition at 0.45 mg/kg, po bid measured up to 5 weeks post drug administration; format: functional; conditions: 840 h, time weeks <=5
[26] = biological target: Protein mono-ADP-ribosyltransferase PARP3 (Homo sapiens, UniProt Q9Y6F1); experiment: Inhibition of PARP3 (unknown origin)
[27] = biological target: Poly [ADP-ribose] polymerase tankyrase-1 (Homo sapiens, UniProt O95271); experiment: Inhibition of TNKS1 (unknown origin)
[28] = biological target: Poly [ADP-ribose] polymerase tankyrase-2 (Homo sapiens, UniProt Q9H2K2); experiment: Inhibition of TNKS2 (unknown origin)
[29] = biological target: 5-hydroxytryptamine receptor 2B (Homo sapiens) (UniProt P41595); experiment: Displacement of [3H]mesulergine from human recombinant 5-HT2B receptor at 10 uM incubated for 60 mins by radiometric scintillation analysis
[30] = biological target: Adrenergic receptor alpha-1 (Homo sapiens) (UniProt P35348+P25100+P35368); experiment: Binding affinity to alpha1 adrenoceptor (unknown origin) at 10 uM; format: protein assay
[31] = biological target: Mitogen-activated protein kinase kinase kinase 14 (Homo sapiens) (UniProt Q99558); experiment: Inhibition of NIK (unknown origin) at 10 uM
[32] = Toxicity in rat assessed as NOAEL; conditions: in vivo
[33] = Toxicity in rat assessed as NOAEL for CNS effect; conditions: in vivo
[34] = Toxicity against SCID/nude mouse xenografted with human CAPAN-1 cells harboring BRCA mutant assessed as body weight loss at 0.15 mg/kg, po bid for 12 days co-administered with 35 mg/kg, po TMZ; format: organism-based; conditions: in vivo, 288 h, time 12 day
[35] = Toxicity against SCID/nude mouse xenografted with human SK-ES-1 cells harboring EWSF1 translocation assessed as body weight loss at 0.15 mg/kg, po bid for 12 days co-administered with 35 mg/kg, po TMZ; format: organism-based; conditions: in vivo, 288 h, time 12 day
[36] = tested on: MDA-MB-436; experiment: Potentiation of anticancer activity against human MDA-MB-436 cells harboring BRCA mutant xenografted in SCID/nude mouse assessed as tumor growth inhibition at 0.15 mg/kg, po bid for 12 days co-administered with […] measured up to 9 weeks post drug administration; format: functional; conditions: MDA-MB-436, po, time weeks <=9

T1 sequence (P09874 whole entry, the tested form may be a part): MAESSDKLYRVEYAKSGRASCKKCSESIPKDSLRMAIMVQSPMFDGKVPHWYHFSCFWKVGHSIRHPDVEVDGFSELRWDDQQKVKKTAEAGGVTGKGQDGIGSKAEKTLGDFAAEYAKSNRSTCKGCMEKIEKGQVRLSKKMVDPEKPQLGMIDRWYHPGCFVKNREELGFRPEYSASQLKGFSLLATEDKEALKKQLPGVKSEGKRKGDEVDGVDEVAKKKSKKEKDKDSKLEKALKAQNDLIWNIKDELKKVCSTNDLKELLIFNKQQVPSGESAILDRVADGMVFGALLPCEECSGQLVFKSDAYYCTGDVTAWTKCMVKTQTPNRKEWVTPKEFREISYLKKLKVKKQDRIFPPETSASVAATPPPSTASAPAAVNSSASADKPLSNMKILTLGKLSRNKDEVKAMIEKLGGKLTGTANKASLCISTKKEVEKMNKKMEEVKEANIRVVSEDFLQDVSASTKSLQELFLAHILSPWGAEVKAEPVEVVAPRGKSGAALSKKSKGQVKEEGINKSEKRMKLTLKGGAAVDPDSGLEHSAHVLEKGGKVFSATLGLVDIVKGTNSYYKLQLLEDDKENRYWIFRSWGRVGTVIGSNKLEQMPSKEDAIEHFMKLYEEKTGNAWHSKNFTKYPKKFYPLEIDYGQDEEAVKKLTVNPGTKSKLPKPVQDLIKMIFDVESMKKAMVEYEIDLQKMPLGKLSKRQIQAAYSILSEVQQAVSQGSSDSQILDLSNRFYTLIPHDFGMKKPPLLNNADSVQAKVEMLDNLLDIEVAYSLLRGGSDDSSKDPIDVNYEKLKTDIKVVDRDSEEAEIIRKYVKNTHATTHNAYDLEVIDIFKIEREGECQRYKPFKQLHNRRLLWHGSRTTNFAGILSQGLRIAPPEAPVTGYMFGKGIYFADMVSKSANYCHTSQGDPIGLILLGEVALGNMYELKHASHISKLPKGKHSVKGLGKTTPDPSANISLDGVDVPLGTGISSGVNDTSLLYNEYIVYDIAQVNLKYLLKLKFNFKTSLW
Chain of Poly [ADP-ribose] polymerase tankyrase-2 (Q9H2K2 whole entry): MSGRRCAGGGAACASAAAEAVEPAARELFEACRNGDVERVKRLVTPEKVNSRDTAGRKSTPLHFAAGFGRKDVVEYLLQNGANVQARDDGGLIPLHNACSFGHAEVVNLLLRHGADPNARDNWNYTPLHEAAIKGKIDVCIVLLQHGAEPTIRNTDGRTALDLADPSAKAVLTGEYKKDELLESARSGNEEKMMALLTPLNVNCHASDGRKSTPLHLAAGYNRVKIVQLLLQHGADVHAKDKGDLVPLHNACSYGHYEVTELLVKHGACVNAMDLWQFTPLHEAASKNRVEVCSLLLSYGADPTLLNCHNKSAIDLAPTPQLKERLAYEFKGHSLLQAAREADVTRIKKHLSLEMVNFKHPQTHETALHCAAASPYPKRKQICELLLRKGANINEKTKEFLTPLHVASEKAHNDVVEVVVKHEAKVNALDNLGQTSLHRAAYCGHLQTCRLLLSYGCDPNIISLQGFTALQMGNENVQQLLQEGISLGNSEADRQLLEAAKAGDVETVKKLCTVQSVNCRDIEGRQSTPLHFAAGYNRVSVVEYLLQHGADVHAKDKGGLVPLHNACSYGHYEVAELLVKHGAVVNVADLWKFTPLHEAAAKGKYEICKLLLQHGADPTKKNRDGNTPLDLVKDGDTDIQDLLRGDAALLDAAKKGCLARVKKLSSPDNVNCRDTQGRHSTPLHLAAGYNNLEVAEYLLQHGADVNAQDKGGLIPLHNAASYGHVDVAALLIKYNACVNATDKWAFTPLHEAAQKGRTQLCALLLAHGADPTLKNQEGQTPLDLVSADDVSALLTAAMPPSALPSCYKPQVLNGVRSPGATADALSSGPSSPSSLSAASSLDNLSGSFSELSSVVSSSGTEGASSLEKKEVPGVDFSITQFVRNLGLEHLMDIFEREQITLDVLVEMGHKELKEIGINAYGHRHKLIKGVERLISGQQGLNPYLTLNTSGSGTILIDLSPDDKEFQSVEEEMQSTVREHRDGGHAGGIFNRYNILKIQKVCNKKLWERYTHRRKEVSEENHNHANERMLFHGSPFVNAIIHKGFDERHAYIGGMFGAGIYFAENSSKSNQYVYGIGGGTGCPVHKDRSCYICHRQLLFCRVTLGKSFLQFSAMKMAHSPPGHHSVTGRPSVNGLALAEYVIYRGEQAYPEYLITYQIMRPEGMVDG
Chain of Poly [ADP-ribose] polymerase tankyrase-1 (O95271 whole entry): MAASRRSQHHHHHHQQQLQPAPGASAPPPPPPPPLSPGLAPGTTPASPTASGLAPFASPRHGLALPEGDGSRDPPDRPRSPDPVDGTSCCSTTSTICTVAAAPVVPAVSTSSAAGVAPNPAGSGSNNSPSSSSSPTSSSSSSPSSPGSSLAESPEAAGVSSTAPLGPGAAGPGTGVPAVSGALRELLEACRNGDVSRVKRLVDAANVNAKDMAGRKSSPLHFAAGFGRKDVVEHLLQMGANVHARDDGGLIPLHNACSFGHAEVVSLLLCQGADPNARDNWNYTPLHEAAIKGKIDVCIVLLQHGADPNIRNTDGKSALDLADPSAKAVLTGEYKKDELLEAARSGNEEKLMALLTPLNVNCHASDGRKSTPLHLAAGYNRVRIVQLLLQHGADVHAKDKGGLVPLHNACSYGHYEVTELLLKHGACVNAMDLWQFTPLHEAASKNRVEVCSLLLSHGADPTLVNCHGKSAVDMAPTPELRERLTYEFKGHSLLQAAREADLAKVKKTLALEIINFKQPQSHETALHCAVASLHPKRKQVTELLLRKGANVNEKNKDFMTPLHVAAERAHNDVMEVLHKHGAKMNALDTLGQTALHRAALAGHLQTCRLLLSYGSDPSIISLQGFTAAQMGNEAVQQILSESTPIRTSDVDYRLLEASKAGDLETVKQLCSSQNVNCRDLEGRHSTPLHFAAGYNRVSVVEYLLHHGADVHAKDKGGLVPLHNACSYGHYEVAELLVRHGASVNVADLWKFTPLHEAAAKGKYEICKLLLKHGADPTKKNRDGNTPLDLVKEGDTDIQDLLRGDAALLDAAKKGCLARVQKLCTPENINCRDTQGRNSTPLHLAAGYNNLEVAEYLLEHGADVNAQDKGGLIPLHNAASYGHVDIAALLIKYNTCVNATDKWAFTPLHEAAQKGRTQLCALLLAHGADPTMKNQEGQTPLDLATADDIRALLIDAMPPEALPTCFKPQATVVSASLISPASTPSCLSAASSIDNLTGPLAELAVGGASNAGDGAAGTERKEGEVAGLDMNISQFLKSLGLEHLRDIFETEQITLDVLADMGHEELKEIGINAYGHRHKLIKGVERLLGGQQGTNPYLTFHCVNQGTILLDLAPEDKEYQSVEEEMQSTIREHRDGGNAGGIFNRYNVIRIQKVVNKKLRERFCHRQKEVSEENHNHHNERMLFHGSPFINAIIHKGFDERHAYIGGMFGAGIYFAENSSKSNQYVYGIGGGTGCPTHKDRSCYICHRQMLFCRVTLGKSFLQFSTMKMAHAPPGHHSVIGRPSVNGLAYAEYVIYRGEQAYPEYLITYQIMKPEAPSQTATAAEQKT
Chain of CYP3A4 (P08684 whole entry): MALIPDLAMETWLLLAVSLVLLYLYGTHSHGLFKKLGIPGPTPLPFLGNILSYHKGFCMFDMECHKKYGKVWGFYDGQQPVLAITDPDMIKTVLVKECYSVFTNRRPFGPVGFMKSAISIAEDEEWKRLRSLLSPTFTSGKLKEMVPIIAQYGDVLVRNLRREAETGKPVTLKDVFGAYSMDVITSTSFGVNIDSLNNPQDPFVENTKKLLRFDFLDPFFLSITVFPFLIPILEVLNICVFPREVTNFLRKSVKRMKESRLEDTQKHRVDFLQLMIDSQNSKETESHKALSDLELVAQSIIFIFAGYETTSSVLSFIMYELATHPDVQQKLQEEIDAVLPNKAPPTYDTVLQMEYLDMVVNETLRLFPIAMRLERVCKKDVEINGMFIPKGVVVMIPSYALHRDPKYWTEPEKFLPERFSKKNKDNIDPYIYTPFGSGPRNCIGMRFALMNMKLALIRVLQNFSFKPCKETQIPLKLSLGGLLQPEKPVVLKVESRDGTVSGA
Chain of Protein mono-ADP-ribosyltransferase PARP3 (Q9Y6F1 whole entry): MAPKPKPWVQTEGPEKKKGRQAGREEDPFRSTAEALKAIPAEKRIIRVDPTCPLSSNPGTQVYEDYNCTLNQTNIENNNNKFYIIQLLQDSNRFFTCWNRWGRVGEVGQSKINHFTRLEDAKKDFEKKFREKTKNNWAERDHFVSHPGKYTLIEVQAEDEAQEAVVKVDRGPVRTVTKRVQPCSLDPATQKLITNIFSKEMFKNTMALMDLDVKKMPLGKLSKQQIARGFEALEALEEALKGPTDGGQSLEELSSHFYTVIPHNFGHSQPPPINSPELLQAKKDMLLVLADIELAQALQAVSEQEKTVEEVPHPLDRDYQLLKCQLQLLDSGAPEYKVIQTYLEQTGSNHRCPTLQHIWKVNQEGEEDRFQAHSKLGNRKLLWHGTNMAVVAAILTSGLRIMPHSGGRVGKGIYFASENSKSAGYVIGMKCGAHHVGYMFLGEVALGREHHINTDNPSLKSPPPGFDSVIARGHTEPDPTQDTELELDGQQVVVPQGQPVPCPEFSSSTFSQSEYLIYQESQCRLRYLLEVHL
Chain of CYP2C9 (P11712 whole entry): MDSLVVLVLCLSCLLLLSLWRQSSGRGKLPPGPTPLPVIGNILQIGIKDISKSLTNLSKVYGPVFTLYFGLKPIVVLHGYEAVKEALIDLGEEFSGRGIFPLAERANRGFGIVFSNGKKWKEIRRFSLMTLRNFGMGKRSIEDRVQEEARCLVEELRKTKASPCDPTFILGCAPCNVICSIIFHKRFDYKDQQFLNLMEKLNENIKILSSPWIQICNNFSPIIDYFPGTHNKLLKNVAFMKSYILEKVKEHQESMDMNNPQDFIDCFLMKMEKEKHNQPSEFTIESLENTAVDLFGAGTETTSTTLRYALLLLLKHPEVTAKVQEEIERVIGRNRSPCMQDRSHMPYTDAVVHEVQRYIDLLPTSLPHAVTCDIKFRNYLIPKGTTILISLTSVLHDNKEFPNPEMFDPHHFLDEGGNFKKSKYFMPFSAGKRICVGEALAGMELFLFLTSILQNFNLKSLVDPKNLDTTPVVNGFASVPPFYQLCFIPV

- pIC50 [1]: 8.96
- inhibition [2]: 82%
- Tmax [4]: 4.8 min
- Tmax [5]: 1 h
- Cmax [6]: 11 µM
- Cmax [7]: 31 µM
- AUC(0-t) at 24 h [8]: 94 µM·h
- half-life [9]: 5.1 h
- clearance [10]: 0.4 mL/min/kg
- Vd [11]: 0.2 L/kg
- bioavailability [12]: 43%
- inhibition at 10 µM [13]: ≤ 23%
- inhibition at 10 µM [14]: ≤ 23%
- inhibition at 10 µM [15]: ≤ 23%
- remaining at 4 h [16]: 80%
- remaining at 4 h [17]: 80%
- fraction unbound [18]: 0.017
- pIC50 [26]: 5.10
- pIC50 [27]: 6.11
- pIC50 [28]: 7.13
- Activity [29]: 70%
- Activity [30]: 70%
- inhibition [31]: 65%
SMILES: N#Cc1ccc(N2CCN([C@H]3C=C(c4cc5ncccc5c(=O)[nH]4)CC3)CC2)cc1
- pIC50 [3]: 12.10
- Activity [19]: 36%
- Activity [20]: Dose-dependent effect
- inhibition in vivo at 0.015 mg/kg [21]: 50%
- Activity [22]: Active
- inhibition in vivo at 0.15 mg/kg [23]: 88%
- inhibition in vivo at 0.3 mg/kg [24]: 49.6%
- inhibition in vivo at 0.45 mg/kg [25]: 20%
- NOAEL [32]: 15 mg/kg/day
- NOAEL [33]: 30 mg/kg/day
- Activity [34]: Non-Toxic
- Activity [35]: Non-Toxic
- inhibition in vivo at 0.15 mg/kg [36]: > 90%
